For one assay, the target named is T1, BRD4 (BDII_E352-M457) (Homo sapiens, UniProt O60885).
T1 construct: made in house
Description: TR-FRET bromodomain binding assay, BRD4 second bromodomain. As to conditions: His-tagged BRD4 BD2, 30 nM Alexa647 probe; Ki calculated from IC50, probe Kd and probe concentration. Here is the method: (§1) A time-resolved fluorescence resonance energy transfer (TR-FRET) assay was used to determine the affinities of compounds of the Examples listed in Table 1 for each bromodomain of BRD4. His-tagged first (BD1: amino acids K57-E168) and second (BD2: amino acids E352-E168) bromodomains of BRD4 were expressed and purified. An Alexa647-labeled BET-inhibitor was used as the fluorescent probe in the assay.
(§2) Compound dilution series were prepared in DMSO via a 3-fold serial dilution from 2.5 mM to 42 nM. Compounds were then diluted 6:100 in assay buffer (20 mM Sodium Phosphate, pH 6.0, 50 mM NaCl, 1 mM Ethylenediaminetetraacetic acid disodium salt dihydrate, 0.01% Triton X-100, 1 mM DL-Dithiothreitol) to yield 3× working solutions. Six microliters (μL) of the working solution was then transferred to white, low-volume assay plates (Costar #3673). A 1.5× assay mixture containing His-tagged bromodomain, Europium-conjugated anti-His antibody (Invitrogen PV5596) and the Alexa-647-conjugated probe molecule was also prepared. Twelve μL of this solution were added to the assay plate to reach a final volume of 18 μL. The final concentration of 1× assay buffer contains 2% DMSO, 50 μM-0.85 nM compound, 8 nM His-tagged bromodomain, 1 nM Europium-conjugated anti-His-tag antibody and 100 nM or 30 nM probe (for BDI or BDII, respectively). After a one-hour incubation at room temperature, TR-FRET ratios were determined using an Envision multilabel plate reader (Ex 340, Em […]).
(§3) TR-FRET data were normalized to the means of 24 no-compound controls (“high”) and 8 controls containing 1 μM un-labeled probe (“low”). […] Inhibition constants (Ki) were calculated from the IC50s, probe Kd and probe concentration. […] The minimum significant ratio was determined to evaluate assay reproducibility (Eastwood et al., (2006) J Biomol Screen, 11: 253-261). The MSR was determined to be 2.03 for BDI and 1.93 for BDII, and a moving MSR (last six run MSR overtime) for both BDI and BDII was typically <3.
On to `CCS(=O)(=O)c1ccc(OCC2CC2(F)F)c(-c2cn(C)c(=O)c3[nH]c(CN4CCN(c5ncccn5)CC4)cc23)c1` (centres unmarked) [Example 19, 4-{2-[(2,2-difluorocyclopropyl)methoxy]-5-(ethylsulfonyl)phenyl}-6-methyl-2-{[4-(pyrimidin-2-yl)piperazin-1-yl]methyl}-1,6-dihydro-7H-pyrrolo[2,3-c]pyridin-7-one], for which the inhibitory constant (Ki) was 62 nM.

Another assay concerns the target T2, BRD4 (BDI_K57-E168) (Homo sapiens, UniProt O60885).
T2 construct: BD1: amino acids K57-E168; made in house
Nature of the assay: TR-FRET bromodomain binding assay, BRD4 first bromodomain. The note with it: His-tagged BRD4 BD1, 100 nM Alexa647 probe; Ki calculated from IC50, probe Kd and probe concentration. How it is done: as §1, §2, §3
For `CCS(=O)(=O)c1ccc(OCC2CC2(F)F)c(-c2cn(C)c(=O)c3[nH]c(CN4CCN(c5ncccn5)CC4)cc23)c1` (centres unmarked) [Example 19, 4-{2-[(2,2-difluorocyclopropyl)methoxy]-5-(ethylsulfonyl)phenyl}-6-methyl-2-{[4-(pyrimidin-2-yl)piperazin-1-yl]methyl}-1,6-dihydro-7H-pyrrolo[2,3-c]pyridin-7-one], the Ki is 6.1 nM.

Another assay concerns breast cancer cell line MX-1. Nature of the assay: MX-1 cell line proliferation assay, Method B. It counts as cell-based. As to conditions: Homo sapiens, MX1; MX-1 cells, 384-well, 72 hours, Cell Titer Glo; read-out: Cellular proliferation: EC50 Method B. How it is done: The impact of compounds of the Examples on cancer cell proliferation was determined using the breast cancer cell line MX-1 (ATCC) in a 3-day proliferation assay and the data are reported in Table 1.
MX-1 cells were maintained in RPMI 1640 medium (Sigma) supplemented with 10% FBS at 37° C. and an atmosphere of 5% CO2. For compound testing, MX-1 cells were plated in 384-well white with clear, flat bottom plates at a density of 750 cells/well in 25 μL of culture media and incubated at 370 overnight to allow cell adhesion and spreading. Ten point compound dilution series were prepared in DMSO via a 3-fold serial dilution from either 10 μM or 1 μM stock and added directly to the appropriate wells of the MX-1 cell plate by an ECHO liquid handler (Labcyte). The final compound concentrations in the wells were 10, 3.25, 1, 0.25, 0.124, 0.040, 0.0124, 0.0031, 0.0015 and 0.0005 μM or 1, 0.33, 0.1, 0.025, 0.0124, 0.004, 0.0012, 0.0003, 0.00015, 0.00005 μM, depending on the concentration of the compound stock solution.
Luminescence readings from the Cell Titer Glo assay were normalized to the DMSO treated cells and analyzed using Accelrys Assay Explorer 3.3 software with sigmoidal curve fitting to obtain EC50s. The minimum significant ratio (MSR) was determined to evaluate assay reproducibility (Eastwood et al., (2006) J Biomol Screen, 11: 253-261). The overall MSR was determined to be 3.3 and a moving MSR (last six run MSR overtime) has averaged 2.1.
A general note: ATP-based viability assays read luminescence as a measure of living cells.
On to `Cc1cccc(C)c1Oc1ccc(S(C)(=O)=O)cc1-c1cn(C)c(=O)c2[nH]c(-c3nc(-c4cnccn4)no3)cc12` [Example 140, 4-[2-(2,6-dimethylphenoxy)-5-(methylsulfonyl)phenyl]-6-methyl-2-[3-(pyrazin-2-yl)-1,2,4-oxadiazol-5-yl]-1,6-dihydro-7H-pyrrolo[2,3-c]pyridin-7-one], for which the EC50 was 491 nM. Regarding `Cc1cccc(C)c1Oc1ccc(S(C)(=O)=O)cc1-c1cn(C)c(=O)c2[nH]c(-c3nc(C4CCOCC4)no3)cc12` [Example 141, 4-[2-(2,6-dimethylphenoxy)-5-(methylsulfonyl)phenyl]-6-methyl-2-[3-(tetrahydro-2H-pyran-4-yl)-1,2,4-oxadiazol-5-yl]-1,6-dihydro-7H-pyrrolo[2,3-c]pyridin-7-one], the EC50 was found to be 443 nM. As for `Cc1cccc(C)c1Oc1ccc(S(C)(=O)=O)cc1-c1cn(C)c(=O)c2[nH]c(-c3nc(-c4cscn4)no3)cc12` [Example 142, 4-[2-(2,6-dimethylphenoxy)-5-(methylsulfonyl)phenyl]-6-methyl-2-[3-(1,3-thiazol-4-yl)-1,2,4-oxadiazol-5-yl]-1,6-dihydro-7H-pyrrolo[2,3-c]pyridin-7-one], the EC50 amounted to 615 nM. `CCN(CC)C(C)(C)CNC(=O)c1cc2c(-c3cc(S(C)(=O)=O)ccc3Oc3c(C)cccc3C)cn(C)c(=O)c2[nH]1` [Example 143, N-[2-(diethylamino)-2-methylpropyl]-4-[2-(2,6-dimethylphenoxy)-5-(methylsulfonyl)phenyl]-6-methyl-7-oxo-6,7-dihydro-1H-pyrrolo[2,3-c]pyridine-2-carboxamide]: the EC50 came out at 532 nM. On to `CCN(CC)CCCCNC(=O)c1cc2c(-c3cc(S(C)(=O)=O)ccc3Oc3c(C)cccc3C)cn(C)c(=O)c2[nH]1` [Example 144, N-[4-(diethylamino)butyl]-4-[2-(2,6-dimethylphenoxy)-5-(methylsulfonyl)phenyl]-6-methyl-7-oxo-6,7-dihydro-1H-pyrrolo[2,3-c]pyridine-2-carboxamide], for which the EC50 stood at 498 nM. For the compound `CCNC(=O)c1cc2c(-c3cc(S(=O)(=O)CC)ccc3Oc3c(C)cccc3CN3CCOCC3)cn(C)c(=O)c2[nH]1` [Example 146, N-ethyl-4-{5-(ethylsulfonyl)-2-[2-methyl-6-(morpholin-4-ylmethyl)phenoxy]phenyl}-6-methyl-7-oxo-6,7-dihydro-1H-pyrrolo[2,3-c]pyridine-2-carboxamide], the EC50 came out at 9320 nM.

With `CCNC(=O)c1cc2c(-c3cc(S(=O)(=O)CC)ccc3Oc3c(C)cccc3CN3CCCCC3)cn(C)c(=O)c2[nH]1` [Example 147, N-ethyl-4-{5-(ethylsulfonyl)-2-[2-methyl-6-(piperidin-1-ylmethyl)phenoxy]phenyl}-6-methyl-7-oxo-6,7-dihydro-1H-pyrrolo[2,3-c]pyridine-2-carboxamide], the EC50 was found to be 6320 nM. Regarding `CCNC(=O)c1cc2c(-c3cc(S(=O)(=O)CC)ccc3Oc3c(C)cccc3CCc3ccccc3)cn(C)c(=O)c2[nH]1` [Example 148, N-ethyl-4-{5-(ethylsulfonyl)-2-[2-methyl-6-(2-phenylethyl)phenoxy]phenyl}-6-methyl-7-oxo-6,7-dihydro-1H-pyrrolo[2,3-c]pyridine-2-carboxamide], the EC50 stood at 1680 nM. Turning to `CCS(=O)(=O)c1ccc(OC2CCCCC2)c(-c2cn(C)c(=O)c3[nH]c(-c4cnn(C5CCNCC5)c4)cc23)c1` [Example 149, 4-[2-(cyclohexyloxy)-5-(ethylsulfonyl)phenyl]-6-methyl-2-[1-(piperidin-4-yl)-1H-pyrazol-4-yl]-1,6-dihydro-7H-pyrrolo[2,3-c]pyridin-7-one], the EC50 was 1.18 nM. As for `CCNC(=O)c1cc2c(-c3cc(S(=O)(=O)CC)ccc3Oc3c(C)cccc3Cn3ccnc3)cn(C)c(=O)c2[nH]1` [Example 150, N-ethyl-4-{5-(ethylsulfonyl)-2-[2-(1H-imidazol-1-ylmethyl)-6-methylphenoxy]phenyl}-6-methyl-7-oxo-6,7-dihydro-1H-pyrrolo[2,3-c]pyridine-2-carboxamide], the EC50 was over 10000 nM.

Regarding `CCNC(=O)c1cc2c(-c3cc(S(=O)(=O)CC)ccc3Oc3c(C)cccc3CN3CCCS3(=O)=O)cn(C)c(=O)c2[nH]1` [Example 152, 4-[2-{2-[(1,1-dioxido-1,2-thiazolidin-2-yl)methyl]-6-methylphenoxy}-5-(ethylsulfonyl)phenyl]-N-ethyl-6-methyl-7-oxo-6,7-dihydro-1H-pyrrolo[2,3-c]pyridine-2-carboxamide], the EC50 is 8140 nM. In the case of `CCNC(=O)c1cc2c(-c3ccc(C(=O)N(CC(=O)NC)Cc4ccccn4)cc3Oc3c(C)cccc3C)cn(C)c(=O)c2[nH]1` [Example 153, 4-[2-(2,6-dimethylphenoxy)-4-{[2-(methylamino)-2-oxoethyl](pyridin-2-ylmethyl)carbamoyl}phenyl]-N-ethyl-6-methyl-7-oxo-6,7-dihydro-1H-pyrrolo[2,3-c]pyridine-2-carboxamide], the EC50 is over 10000 nM. Consider `Cn1cc(-c2cc(S(C)(=O)=O)ccc2Oc2ccc(F)cc2F)c2cc(CN3CC(n4cncn4)C3)[nH]c2c1=O` [Example 156, 4-[2-(2,4-difluorophenoxy)-5-(methylsulfonyl)phenyl]-6-methyl-2-{[3-(1H-1,2,4-triazol-1-yl)azetidin-1-yl]methyl}-1,6-dihydro-7H-pyrrolo[2,3-c]pyridin-7-one], for which the EC50 stood at 332 nM.

With `Cn1cc(-c2cc(S(C)(=O)=O)ccc2Oc2ccc(F)cc2F)c2cc(CNCCC(N)=O)[nH]c2c1=O` [Example 159, 3-[({4-[2-(2,4-difluorophenoxy)-5-(methylsulfonyl)phenyl]-6-methyl-7-oxo-6,7-dihydro-1H-pyrrolo[2,3-c]pyridin-2-yl}methyl)amino]propanamide], the EC50 came out at 599 nM. On the same count and under the same terms, the value for `CCNC(=O)c1cc2c(-c3ccc(C(=O)N(CCCN4CCOCC4)Cc4ccccc4)cc3Oc3c(C)cccc3C)cn(C)c(=O)c2[nH]1` [Example 161, 4-[4-{benzyl[3-(morpholin-4-yl)propyl]carbamoyl}-2-(2,6-dimethylphenoxy)phenyl]-N-ethyl-6-methyl-7-oxo-6,7-dihydro-1H-pyrrolo[2,3-c]pyridine-2-carboxamide] was 1950 nM.

As usually defined, the Ki is the dissociation constant of the complex between target and ligand, obtained from inhibition or displacement.

Source of the values: US10131657B2, “Bromodomain inhibitors” (AbbVie Inc., priority 2013, dated 2018).
